This is an account of results in patent publication US5683982A, “Synthetic lung surfactant having antioxidant properties” (Merrell Pharmaceuticals Inc., priority 1995, dated 1997).

The nature of data set [1]: Surface tension of an oscillating bubble in a pulsating bubble surfactometer. The following applies: after 10 min of pulsing, 37° C. It counts as physicochemical. The method, then:
Surface Tension Measurements. The minimum and maximum surface tension of an oscillating bubble were measured on samples at 37° C. with a cycle rate of 20 per min in a pulsating bubble surfactometer (PBS, Electronetics Corp.), essentially as described by Enhorning, J. Appl. Physiol 43:198-203 (1977). The plastic cample chamber was rinsed with a dilute solution of dishwashing detergent, thoroughly rinsed with water and dried under a stream of N2 prior to use.

In data set [2] the test system is surfactant-deficient lavaged adult rat lungs. As to the kind of experiment: Isolated rat lavaged lung model (pressure-volume deflation curves). It counts as in vivo. The following applies: for effect on the pressure-volume (P-V) curve of the lavaged lung: statement in words. The source says:
Methods of testing the synthetic surfactant preparations for efficacy are well known in the art. For example, the synthetic surfactant preparations of the present invention can be tested in any appropriate manner such as in the adult rat lung model (Ikegami, et al., (1979) Pediatr. Res. 13, 777-780).
Pressure-volume characteristics of surfactant-depleted rat lungs are similar to those of lungs of infants with hyaline membrane disease and restoration of the pressure-volume relationship of the lung to normal is related to the amount of surfactant instilled in a dose dependent manner. (Bermel, M. S., et al., Lavaged excised rat lungs as a model of surfactant deficiency, Lung 162:99-113 (1984)).
Isolated Rat Lavaged Lung Model. The experimental procedures for animal preparation, pressure-volume curve registration and lung lavage were adapted from those described by Ikegami et al., Pediatr. Res. 11:178-182 (1977) and Pediatr. Res. 13:777-780 (1979, and Bermel et al, Lung 162:99-113 (1984). Male Sprague Dawley rats (200-250 g) were anesthetized with sodium pentobarbital and exsanguinated. The trachea was cannulated and the thoracic organs were removed en bloc. After removal of the adventitious tissue, the trachea and lungs (~2 g) were suspended in saline (0.9%), placed in a vacuum chamber, and degassed according to the procedure of Stengel et al. the degassed lungs were suspended in saline in a 37° C., jacketed reservoir and the tracheal cannula was connected both to a water manometer and a glass syringe by a T-tube. The glass syringe was placed in an infusion/withdrawal pump. Lungs were rapidly inflated with air to 30 cm H2 O pressure at the rate of 10 ml/min to minimize air trapping, and were maintained at this pressure for 10 min by intermittently adding air to the lungs. The total volume of air infused was recorded as the total lung capacity (TLC) which was generally 14-15 ml. The lungs were then deflated at a rate of 2.5 ml/min until zero pressure was attained. During deflation, pressure was read from the water manometer at 1 cm intervals and recorded. […] After degassing and equilibration, the lungs were rendered surfactant-deficient by repeated lavage with 5 ml/g lavage buffer (0.9% NaCl, 10 mM HEPES, pH 7.4). The procedures of degassing, equilibrating, and lavaging were repeated (15-20 times) until the pressure-volume curve had become distinctly sigmoidal in shape and the volume of air remaining in the lungs at 5 cm H2 O pressure was less than or equal to 3 ml. At this point, the lungs were considered surfactant-deficient. For testing, 2 ml of 0.9% NaCl, 10 mM HEPES buffer, pH 7.4, were added to the dry lung surfactants (25 mg of phospholipid; 100-125 mg/kg) and the mixture was vortexed, flushed with nitrogen and incubated for 1 h at 45° C. The mixture was then vortexed again, degassed if foamy, and 2 ml of the test mixture were introduced into and withdrawn from the lungs four times by syringe. When the test mixture was reintroduced to the lungs for the fifth time, it was allowed to remain in the lungs. This procedure was adopted to encourage even distribution of the material throughout the lung. The lungs were degassed, allowed to equilibrate at 37° C. for 5 min, and a P-V measurement was performed. […] The deflation limbs of the pressure-volume (P-V) curves in adult rat lungs were analyzed by calculating the total lung capacities (%TLC) at 5 and 10 cm H2 O pressure (PC5 and PC10).

A short description of data set [3]: CD spectra: conformation of peptides in water and TFE. It counts as physicochemical. The following applies: fits ±3% (SEM of fit). On the procedure:
CD Spectra. Circular dichroic (CD) spectra of samples in 1 mm circular cuvettes were recorded at room temperature on a Jasco J-500A Spectropolarimeter with 2 nm slit width. The CD spectrum of buffer was subtracted from the CD spectrum of the sample after each scan. The scan rate is 2 nm/min and the time constant was 8 sec. Data was collected at 0.04 nm intervals and averaged over a 0.2 nm interval.

The subject of data set [4] is soy phosphatidyl-choline (PC). As to the kind of experiment: Antioxidant activity: inhibition of Fe-initiated lipid peroxidation (TBARs). It counts as biochemical. The method, then: Antioxidant Activity. Peptides were dissolved in trifluoroethanol (TFE) and mixed with soy phosphatidyl-choline (PC) in chloroform. After drying under a N2 stream, the mixture was resuspended in ethanol and injected into buffer (50 mM NaCl, 50 mM Tris-HCl, pH 7.0) to obtain a final concentration of 0.5 mM phospholipid. Peroxidation was initiated with 50 μM Fe^2+ plus a mixture of 50 μM Fe^3+ and 250 μM histidine. At intervals over a period of 15 min at 37° C., 1 mL samples of the reaction mixture were taken for determination of TBARs (thiobarbituric acid reactive substances). Two mL of a mixture of 2 parts of 0.67% thiobarbituric acid/0.05N NaOH and 1 part of 10% trichloroacetic acid and 0.05 mL of 2% butylated hydroxytoluene were added. Reaction proceeded for 30 min at 100° C. The tubes were then cooled, centrifuged for 15 min at 3000 rpm and transferred to acrylic cuvettes. The differences in absorbance at 532 nm and 700 nm (to correct for light scattering) were measured and the TBARs were calculated in units of malondialdehyde equivalents using a molar extinction coefficient of 1.56×10^5 M^-1 cm^-1.

Setting [5] is: water, fit to standard spectra of Greenfield & Fasman.

Starred links: 1 amine or outer side, 2 acyl side, 3 side chain; linkers in the order of their positions; H or OH if unused. Residues, ends and D or L forms follow the SMILES beside them. *: point of attachment. X1 = CC(C)(C)c1cc(C(=O)*)cc(C(C)(C)C)c1O; Suc = O=C(CCC(=O)[*:2])[*:1]

As for `CCCCCCCCCCCCCCCC(=O)OC[C@H](COP(=O)([O-])OCC[N+](C)(C)C)OC(=O)CCCCCCCCCCCCCCC` [DPPC, dipalmitoylphosphatidylcholine], the “γmin (minimum surface tension)” value in data set [1] (unsonicated liposomes) was 38 mN/m. In addition, in data set [2] (no dose given, mean ± SEM, n=4), the “PC5 (% TLC at 5 cm H2O)” value was 13 ± 1 % TLC and the “PC10 (% TLC at 10 cm H2O)” value was found to be 31 ± 2 % TLC. Further, the “restoration (based on PC5)” value in data set [2] (no dose given, relative to sufficient and deficient measurements on the same lungs, mean ± SEM) was -11 ± 8%. Moreover, the “effect on the pressure-volume (P-V) curve of the lavaged lung” value in data set [2] is given as “no significant effect”.

For `CC(C)C[C@H](NC(=O)CCC(=O)O)C(=O)N[C@@H](CC(C)C)C(=O)N[C@@H](CCC(=O)O)C(=O)N[C@@H](CCCCN)C(=O)N[C@@H](CC(C)C)C(=O)N[C@@H](CC(C)C)C(=O)N[C@@H](CCC(=O)O)C(=O)N[C@@H](CCCCNC(=O)c1cc(C(C)(C)C)c(O)c(C(C)(C)C)c1)C(=O)N[C@@H](CC(C)C)C(=O)N[C@@H](CCCCN)C(N)=O` [HBB-LysMAP10, Suc-Leu-Leu-Glu-Lys-Leu-Leu-Glu-Ne-HBB-Lys-Leu-Lys-NH2] (Suc-LLEKLLEK(X1)LK-NH2), the “Conformation based on CD spectra: α” value in data set [3] (TFE, first TFE column) is 78. The “Conformation based on CD spectra: α (second TFE column)” value in data set [3] (TFE, second TFE column) came out at 0. Moreover, in data set [3] (setting [5]), the “Conformation based on CD spectra: α” value stood at 59 and the “Conformation based on CD spectra: β” value is 4. Moreover, the “antioxidant activity (inhibition of lipid peroxidation)” value in data set [4] (in soy PC mixtures, 50 μM Fe2+ plus 50 μM Fe3+/250 μM histidine, 37° C., 15 min) is reported as “effective antioxidants”.

For `CC(C)(Sc1cc(C(C)(C)C)c(O)c(C(C)(C)C)c1)Sc1cc(C(C)(C)C)c(O)c(C(C)(C)C)c1` [Probucol], the “γmin (minimum surface tension)” value in data set [1] (mixture with DPPC, 20 cycles per min) was “slightly increased”. Further, in data set [2], the “effect on the pressure-volume (P-V) curve of the lavaged lung” value was “does not diminish the activity”. Further, the “time for which oxidation is totally inhibited” value in data set [4] (0.6% (by weight), added to WMAP10 in soy PC mixtures, data not shown) is on record as “at least 8 min”.
